Data: article PMC5218480 (PLoS ONE, 2017)

Tested on: MV-4-11 cells
Test: Gene expression microarray analysis (Affymetrix PrimeView) and GSEA
Type: cell-based, human
Parameters: RFU PODN (11730768_x_at) / Fold change /veh PODN (11730768_x_at) / RFU LINC00158 (11744669_a_at) / Fold change /veh LINC00158 (11744669_a_at) / RFU DUSP10 (11751237_a_at) / Fold change /veh DUSP10 (11751237_a_at) / RFU ID3 (11757404_x_at) / Fold change /veh ID3 (11757404_x_at) / RFU PLEKHG5 (11737974_s_at) / Fold change /veh PLEKHG5 (11737974_s_at) / RFU LRRC4B (11730491_at) / Fold change /veh LRRC4B (11730491_at) / RFU GIMAP4 (11747438_a_at) / Fold change /veh GIMAP4 (11747438_a_at) / RFU KRT8 (11758183_x_at) / Fold change /veh KRT8 (11758183_x_at) / RFU CNN1 (11734310_a_at) / Fold change /veh CNN1 (11734310_a_at) / RFU VPS37D (11726825_at) / Fold change /veh VPS37D (11726825_at) / RFU C10orf10 (11716522_x_at) / Fold change /veh C10orf10 (11716522_x_at) / RFU KIR2DL2 /// KIR2DL4 /// KIR2DL5A /// KIR2DL5B /// KIR2DS1 /// KIR2DS2 /// KIR2DS3 /// KIR2DS4 /// KIR3DL3 /// KIR3DL3 /// KIR3DS1 (11738374_at) / Fold change /veh KIR2DL2 /// KIR2DL4 /// KIR2DL5A /// KIR2DL5B /// KIR2DS1 /// KIR2DS2 /// KIR2DS3 /// KIR2DS4 /// KIR3DL3 /// KIR3DL3 /// KIR3DS1 (11738374_at) / RFU C1QL1 (11718748_at) / Fold change /veh C1QL1 (11718748_at) / RFU TMPRSS4 (11747572_a_at) / Fold change /veh TMPRSS4 (11747572_a_at) / RFU HAMP (11756126_x_at) / Fold change /veh HAMP (11756126_x_at) / RFU RNFT2 (11725882_a_at) / Fold change /veh RNFT2 (11725882_a_at) / RFU NR4A2 (11747474_a_at) / Fold change /veh NR4A2 (11747474_a_at) / RFU ABCC12 (11746883_a_at) / Fold change /veh ABCC12 (11746883_a_at) / RFU TMEM136 (11760407_x_at) / Fold change /veh TMEM136 (11760407_x_at) / RFU CLDN22 /// WWC2 (11732394_at) / Fold change /veh CLDN22 /// WWC2 (11732394_at) / RFU HLA-DPB1 (11760878_x_at) / Fold change /veh HLA-DPB1 (11760878_x_at) / RFU SPINT1 (11716480_a_at) / Fold change /veh SPINT1 (11716480_a_at) / RFU GAP43 (11754022_s_at) / Fold change /veh GAP43 (11754022_s_at) / RFU A4GNT (11735810_at) / Fold change /veh A4GNT (11735810_at) / RFU PRB3 (11715151_x_at) / Fold change /veh PRB3 (11715151_x_at) / RFU TUBB4B (11761932_at) / Fold change /veh TUBB4B (11761932_at) / RFU CAPN14 (11732068_a_at) / Fold change /veh CAPN14 (11732068_a_at) / RFU TMCC2 (11721928_a_at) / Fold change /veh TMCC2 (11721928_a_at) / RFU IRGQ (11745062_a_at) / Fold change /veh IRGQ (11745062_a_at) / RFU FAM174B (11720279_a_at) / Fold change /veh FAM174B (11720279_a_at) / RFU TMPRSS4 (11748680_a_at) / Fold change /veh TMPRSS4 (11748680_a_at) / RFU FAM212B (11763350_a_at) / Fold change /veh FAM212B (11763350_a_at) / RFU PLEKHG5 (11743358_a_at) / Fold change /veh PLEKHG5 (11743358_a_at) / RFU ZSCAN30 (11745921_a_at) / Fold change /veh ZSCAN30 (11745921_a_at) / RFU CMKLR1 (11741424_a_at) / Fold change /veh CMKLR1 (11741424_a_at) / RFU LOC101060620 /// MAPK8IP1 (11723275_at) / Fold change /veh LOC101060620 /// MAPK8IP1 (11723275_at) / RFU SPTSSB (11747773_x_at) / Fold change /veh SPTSSB (11747773_x_at) / RFU PRSS12 (11739890_at) / Fold change /veh PRSS12 (11739890_at) / RFU BIN1 (11741810_x_at) / Fold change /veh BIN1 (11741810_x_at) / RFU WNT11 (11732464_a_at) / Fold change /veh WNT11 (11732464_a_at) / RFU C10orf10 (11716521_a_at) / Fold change /veh C10orf10 (11716521_a_at) / RFU C5orf56 (11738089_at) / Fold change /veh C5orf56 (11738089_at) / RFU CYB561 (11721691_x_at) / Fold change /veh CYB561 (11721691_x_at) / RFU ANKRD19P (11752326_a_at) / Fold change /veh ANKRD19P (11752326_a_at) / RFU OR2T12 /// OR2T33 /// OR2T8 (11738714_s_at) / Fold change /veh OR2T12 /// OR2T33 /// OR2T8 (11738714_s_at) / RFU VCAN (11748164_a_at) / Fold change /veh VCAN (11748164_a_at) / RFU JSRP1 (11732532_at) / Fold change /veh JSRP1 (11732532_at) / RFU KRTAP10-11 (11738290_x_at) / Fold change /veh KRTAP10-11 (11738290_x_at) / RFU MYO3A (11730013_a_at) / Fold change /veh MYO3A (11730013_a_at) / RFU EBF3 (11725865_a_at) / Fold change /veh EBF3 (11725865_a_at) / RFU CAMK2N1 (11719241_x_at) / Fold change /veh CAMK2N1 (11719241_x_at) / RFU C5orf56 (11738088_a_at) / Fold change /veh C5orf56 (11738088_a_at) / RFU OLFML3 (11715873_a_at) / Fold change /veh OLFML3 (11715873_a_at) / RFU LOC100653217 /// NTM (11731650_a_at) / Fold change /veh LOC100653217 /// NTM (11731650_a_at) / RFU MAPK11 (11762145_a_at) / Fold change /veh MAPK11 (11762145_a_at) / RFU FIZ1 (11724087_x_at) / Fold change /veh FIZ1 (11724087_x_at) / RFU OASL (11726364_x_at) / Fold change /veh OASL (11726364_x_at) / RFU SOX15 (11748057_x_at) / Fold change /veh SOX15 (11748057_x_at) / RFU CD79A (11719716_a_at) / Fold change /veh CD79A (11719716_a_at) / RFU HIST1H1D (11736915_at) / Fold change /veh HIST1H1D (11736915_at) / RFU CASKIN2 (11723855_a_at) / Fold change /veh CASKIN2 (11723855_a_at) / RFU LOC730098 (11760151_x_at) / Fold change /veh LOC730098 (11760151_x_at) / RFU OR4N2 (11742367_at) / Fold change /veh OR4N2 (11742367_at) / RFU PRRT2 (11749266_a_at) / Fold change /veh PRRT2 (11749266_a_at) / RFU SNX32 (11753110_a_at) / Fold change /veh SNX32 (11753110_a_at) / RFU CDHR5 (11726645_a_at) / Fold change /veh CDHR5 (11726645_a_at) / RFU RCAN1 (11760418_a_at) / Fold change /veh RCAN1 (11760418_a_at) / RFU FAM167A (11723789_a_at) / Fold change /veh FAM167A (11723789_a_at) / RFU FAM26E (11764081_at) / Fold change /veh FAM26E (11764081_at) / RFU ISYNA1 (11749810_s_at) / Fold change /veh ISYNA1 (11749810_s_at) / RFU ACY1 (11761880_at) / Fold change /veh ACY1 (11761880_at) / RFU 11764098_at / Fold change /veh 11764098_at / RFU SAMD14 (11745864_x_at) / Fold change /veh SAMD14 (11745864_x_at) / RFU NPB (11741838_a_at) / Fold change /veh NPB (11741838_a_at) / RFU TMPRSS6 (11731388_a_at) / Fold change /veh TMPRSS6 (11731388_a_at) / RFU KRTAP10-2 (11738614_at) / Fold change /veh KRTAP10-2 (11738614_at) / RFU ARHGAP8 /// PRR5-ARHGAP8 (11727945_x_at) / Fold change /veh ARHGAP8 /// PRR5-ARHGAP8 (11727945_x_at) / RFU KRTAP5-7 /// NADSYN1 (11734609_at) / Fold change /veh KRTAP5-7 /// NADSYN1 (11734609_at) / RFU RASL12 (11751679_a_at) / Fold change /veh RASL12 (11751679_a_at) / RFU CDKN2B (11736163_a_at) / Fold change /veh CDKN2B (11736163_a_at) / RFU PRF1 (11729649_at) / Fold change /veh PRF1 (11729649_at) / RFU, ZNF638 /// ZNF638-IT1 / Fold change vs veh, ZNF638 /// ZNF638-IT1 / RFU, PANK3 / Fold change vs veh, PANK3 / RFU, SH3YL1 / Fold change vs veh, SH3YL1 / RFU, ZEB2 / Fold change vs veh, ZEB2 / RFU, NRIP1 / Fold change vs veh, NRIP1 / RFU, PTTG1IP / Fold change vs veh, PTTG1IP / RFU, CAPN2 / Fold change vs veh, CAPN2 / RFU, MED14 / Fold change vs veh, MED14 / RFU, SNORA58 / Fold change vs veh, SNORA58 / RFU, C1orf63 / Fold change vs veh, C1orf63 / RFU, LRRFIP1 / Fold change vs veh, LRRFIP1 / RFU, NDUFAF7 / Fold change vs veh, NDUFAF7 / RFU, SLC12A2 / Fold change vs veh, SLC12A2 / RFU, IBTK / Fold change vs veh, IBTK / RFU, ESF1 / Fold change vs veh, ESF1 / Fold change vs veh, TMEM50B / RFU, TAOK1 / Fold change vs veh, TAOK1 / RFU, ACBD3 / Fold change vs veh, ACBD3 / RFU, TMA16 / Fold change vs veh, TMA16 / RFU, RWDD3 / Fold change vs veh, RWDD3 / RFU, BCAT1 / Fold change vs veh, BCAT1 / RFU, EDEM3 / Fold change vs veh, EDEM3 / RFU, TMEM33 / Fold change vs veh, TMEM33 / RFU, WDR75 / Fold change vs veh, WDR75 / RFU, AHCTF1 / Fold change vs veh, AHCTF1 / RFU, TFRC / Fold change vs veh, TFRC / RFU, ZDHHC17 / Fold change vs veh, ZDHHC17 / RFU, NOM1 / Fold change vs veh, NOM1 / RFU, ARL8B / Fold change vs veh, ARL8B / RFU, ZBTB11 / Fold change vs veh, ZBTB11 / RFU, TAMM41 / Fold change vs veh, TAMM41 / RFU, KIAA1704 /// LOC100996395 / Fold change vs veh, KIAA1704 /// LOC100996395 / RFU, ING1 / Fold change vs veh, ING1 / RFU, TRMT61B / Fold change vs veh, TRMT61B / RFU, FUBP3 / Fold change vs veh, FUBP3 / RFU, TP53 / Fold change vs veh, TP53 / RFU, TNKS2 / Fold change vs veh, TNKS2 / RFU, ZFP14 / Fold change vs veh, ZFP14 / RFU, ACTR2 / Fold change vs veh, ACTR2 / RFU, PPP3R1 / Fold change vs veh, PPP3R1 / RFU, PIK3R1 / Fold change vs veh, PIK3R1 / RFU, HNRNPA1 / Fold change vs veh, HNRNPA1 / RFU, RNF170 / Fold change vs veh, RNF170 / RFU, ZNF28 / Fold change vs veh, ZNF28 / RFU, RNGTT / Fold change vs veh, RNGTT / RFU, OGT / Fold change vs veh, OGT / RFU, BRD1 / Fold change vs veh, BRD1 / RFU, MARS / Fold change vs veh, MARS / RFU, ZNF655 / Fold change vs veh, ZNF655 / RFU, FAHD1 / Fold change vs veh, FAHD1 / RFU, BDP1 / Fold change vs veh, BDP1 / RFU, LRRCC1 / Fold change vs veh, LRRCC1 / RFU, ARID1A / Fold change vs veh, ARID1A / RFU, ZNF146 / Fold change vs veh, ZNF146 / RFU, ZNF330 / Fold change vs veh, ZNF330 / RFU, GPN3 / Fold change vs veh, GPN3 / RFU, C9orf123 / Fold change vs veh, C9orf123 / RFU, N4BP2L2 / Fold change vs veh, N4BP2L2 / RFU, ARFIP1 / Fold change vs veh, ARFIP1 / RFU, FAM179B / Fold change vs veh, FAM179B / RFU, BCL10 / Fold change vs veh, BCL10 / RFU, UHRF1BP1L / Fold change vs veh, UHRF1BP1L / RFU, BET1 / Fold change vs veh, BET1 / RFU, CNOT2 / Fold change vs veh, CNOT2 / RFU, ZNF268 / Fold change vs veh, ZNF268 / Fold change vs veh, ZNF507 / RFU, DGCR2 / Fold change vs veh, DGCR2 / RFU, WDSUB1 / Fold change vs veh, WDSUB1 / Fold change vs veh, HSP90B1 /// MIR3652 / RFU, ADSS / Fold change vs veh, ADSS / RFU, GK / Fold change vs veh, GK / RFU, ZNF148 / Fold change vs veh, ZNF148 / RFU, TAF9 / Fold change vs veh, TAF9 / RFU, SLC1A5 / Fold change vs veh, SLC1A5 / RFU, SLMO2 / Fold change vs veh, SLMO2 / RFU, ABCC4 / Fold change vs veh, ABCC4 / RFU, LOC101060439 /// RAP1B / Fold change vs veh, LOC101060439 /// RAP1B / RFU, RFX7 / Fold change vs veh, RFX7 / RFU, GTPBP10 / Fold change vs veh, GTPBP10 / RFU, CNEP1R1 / Fold change vs veh, CNEP1R1 / RFU, BIVM-ERCC5 /// ERCC5 / Fold change vs veh, BIVM-ERCC5 /// ERCC5 / RFU, ILF3 / Fold change vs veh, ILF3 / RFU 11762660_at / Fold change /veh 11762660_at / RFU VCAN (11757783_s_at) / Fold change /veh VCAN (11757783_s_at) / RFU DDX43 (11728927_at) / Fold change /veh DDX43 (11728927_at) / RFU KRT8 (11758188_x_at) / Fold change /veh KRT8 (11758188_x_at) / RFU NKD1 (11759106_at) / Fold change /veh NKD1 (11759106_at) / RFU SRD5A1 (11742802_a_at) / Fold change /veh SRD5A1 (11742802_a_at) / RFU TPSAB1 /// TPSB2 (11721975_s_at) / Fold change /veh TPSAB1 /// TPSB2 (11721975_s_at) / RFU GSTM3 (11746129_a_at) / Fold change /veh GSTM3 (11746129_a_at) / RFU IL23R (11737362_x_at) / Fold change /veh IL23R (11737362_x_at) / RFU TMEM51 (11727254_a_at) / Fold change /veh TMEM51 (11727254_a_at) / RFU PIWIL2 (11732686_x_at) / Fold change /veh PIWIL2 (11732686_x_at) / RFU ORM1 (11744905_x_at) / Fold change /veh ORM1 (11744905_x_at) / RFU CCDC152 (11743942_at) / Fold change /veh CCDC152 (11743942_at) / RFU ECM1 (11717891_a_at) / Fold change /veh ECM1 (11717891_a_at) / RFU IL23R (11748794_a_at) / Fold change /veh IL23R (11748794_a_at) / RFU TNFAIP8L3 (11732012_x_at) / Fold change /veh TNFAIP8L3 (11732012_x_at) / RFU MBOAT4 (11741988_at) / Fold change /veh MBOAT4 (11741988_at) / RFU 11764193_at / Fold change /veh 11764193_at / RFU TMEM53 (11763286_at) / Fold change /veh TMEM53 (11763286_at) / RFU MAGEB2 (11727129_at) / Fold change /veh MAGEB2 (11727129_at) / RFU TMEM200A (11744735_a_at) / Fold change /veh TMEM200A (11744735_a_at) / RFU CCDC152 (11751479_a_at) / Fold change /veh CCDC152 (11751479_a_at) / RFU FAM211A (11726209_a_at) / Fold change /veh FAM211A (11726209_a_at) / RFU RGS16 (11746705_a_at) / Fold change /veh RGS16 (11746705_a_at) / RFU VCAN (11755009_s_at) / Fold change /veh VCAN (11755009_s_at) / RFU RHOB (11743442_s_at) / Fold change /veh RHOB (11743442_s_at) / RFU RGS16 (11720943_a_at) / Fold change /veh RGS16 (11720943_a_at) / RFU RGS16 (11720944_at) / Fold change /veh RGS16 (11720944_at) / RFU, VPS4B / Fold change vs veh, VPS4B / RFU, CREB1 / Fold change vs veh, CREB1 / RFU, DNAJC13 / Fold change vs veh, DNAJC13 / RFU, GNAQ / Fold change vs veh, GNAQ / RFU, CDK5R1 / Fold change vs veh, CDK5R1 / RFU, ZRANB3 / Fold change vs veh, ZRANB3 / RFU, CUL4A / Fold change vs veh, CUL4A / RFU, CCNY / Fold change vs veh, CCNY / RFU, UFL1 / Fold change vs veh, UFL1 / RFU, COG3 / Fold change vs veh, COG3 / RFU, DIAPH2 / Fold change vs veh, DIAPH2 / RFU, SKA2 / Fold change vs veh, SKA2 / RFU, AFF3 / Fold change vs veh, AFF3 / RFU, LMF1 / Fold change vs veh, LMF1 / RFU, IPO11 / Fold change vs veh, IPO11 / RFU, DFFB / Fold change vs veh, DFFB / RFU, FOXP1 / Fold change vs veh, FOXP1 / RFU, CARD8 / Fold change vs veh, CARD8 / RFU, STRN3 / Fold change vs veh, STRN3 / RFU, ADK / Fold change vs veh, ADK / RFU, RASSF2 / Fold change vs veh, RASSF2 / RFU, WIPF1 / Fold change vs veh, WIPF1 / RFU, LARP1B / Fold change vs veh, LARP1B / RFU, RASA1 / Fold change vs veh, RASA1 / RFU, RB1 / Fold change vs veh, RB1 / RFU, PPFIA1 / Fold change vs veh, PPFIA1 / RFU, MAT2A / Fold change vs veh, MAT2A / RFU, CCT5 / Fold change vs veh, CCT5 / RFU, WDR92 / Fold change vs veh, WDR92 / RFU, CUX1 / Fold change vs veh, CUX1 / RFU, TTC7A / Fold change vs veh, TTC7A / RFU, TMEM135 / Fold change vs veh, TMEM135 / RFU, DEPTOR / Fold change vs veh, DEPTOR / RFU, CPM / Fold change vs veh, CPM / RFU, DNAJB6 / Fold change vs veh, DNAJB6 / RFU, CACNA2D3 / Fold change vs veh, CACNA2D3 / RFU, DTX4 / Fold change vs veh, DTX4 / RFU, TFCP2 / Fold change vs veh, TFCP2 / RFU, GMCL1 /// GMCL1P1 / Fold change vs veh, GMCL1 /// GMCL1P1 / RFU, AEBP2 / Fold change vs veh, AEBP2 / RFU, SNHG1 /// SNORD22 /// SNORD25 /// SNORD26 /// SNORD27 /// SNORD28 /// SNORD29 /// SNORD31 / Fold change vs veh, SNHG1 /// SNORD22 /// SNORD25 /// SNORD26 /// SNORD27 /// SNORD28 /// SNORD29 /// SNORD31 / Fold change (Aza/veh), C12orf56 (ProbeSet 11735607_a_at) / Fold change (ACY-1035/veh), C12orf56 (ProbeSet 11735607_a_at) / Fold change (Aza/veh), FGFR1OP (ProbeSet 11751329_s_at) / Fold change (ACY-1035/veh), FGFR1OP (ProbeSet 11751329_s_at) / Fold change (Aza/veh), VPS36 (ProbeSet 11739960_a_at) / Fold change (ACY-1035/veh), VPS36 (ProbeSet 11739960_a_at) / RFU SYPL1 (11715823_x_at) / Fold change /veh SYPL1 (11715823_x_at) / RFU IGFBP7 (11715501_s_at) / Fold change /veh IGFBP7 (11715501_s_at) / RFU REEP3 (11722064_at) / Fold change /veh REEP3 (11722064_at) / RFU IGLL1 (11728026_x_at) / Fold change /veh IGLL1 (11728026_x_at): dose or concentration left out as unconfirmed
Settings: ProbeSet 11727958_a_at; LIST B

## Nc1ncn([C@@H]2O[C@H](CO)[C@@H](O)[C@H]2O)c(=O)n1 [azacitidine]
  RFU, ING1: 72.09 RFU
